# Experimental data published in US11708348B2, “Protease inhibitors for treatment of coronavirus infections” (The Scripps Research Institute, priority 2021, dated 2023).
# Test system: SARS-CoV-2 strain USA-WA1/2020
# Assay: microbe, parasite or virus in culture
# Type: cell-based
# Conditions: Severe acute respiratory syndrome coronavirus 2, HeLa-ACE2, 24 h, HeLa-ACE2 cells, SARS-CoV-2 infection, 24 h; read-out: EC50, uM (Hela)
row,SMILES,EC50 [µM]
1,"CC1(C[C@H](NC(=O)C(=O)NC23CC(F)(C2)C3)C(=O)N[C@@H](C[C@@H]2CCNC2=O)C(=O)COC(F)(F)F)CC1 [Compound 582, N1-(3-fluorobicyclo-[1.1.1]pentan-1-yl)-N2-((S)-3-(l-methyl-cyclopropyl)-1-oxo-1-(((S)-3-oxo-1-((S)-2-oxopyrrolidin-3-yl)-4-(trifluoromethoxy)butan-2-yl)amino)propan-2-yl)oxalamide]",< 0.05
2,"O=C(Nc1ccccc1F)C(=O)N1CC[C@H]1C(=O)N[C@@H](C[C@@H]1CCNC1=O)C(=O)COC(F)(F)F [Compound 583, (S)-1-(2-((2-fluoro-phenyl)amino)-2-oxoacetyl)-N-((S)-3-oxo-1-((S)-2-oxopyrrolidin-3-yl)-4-(trifluoromethoxy)butan-2-yl)azetidine-2-carboxamide]",0.05 to 0.2
3,"O=C(Nc1ccccc1F)C(=O)N1CCCCC[C@H]1C(=O)N[C@@H](C[C@@H]1CCNC1=O)C(=O)COC(F)(F)F [Compound 584, (S)-1-(2-((2-fluorophenyl)amino)-2-oxoacetyl)-N-((S) -3-oxo-1-((S)-2-oxopyrrolidin-3-yl)-4-(trifluoromethoxy)butan-2-yl)azepane-2-carboxamide]",< 0.05
4,"CC1(NC(=O)C(=O)N[C@@H](CC2CC2)C(=O)N[C@@H](C[C@@H]2CCNC2=O)C(=O)COC(F)(F)F)CC1 [Compound 585, N1-((S)-3-cyclopropyl-1-oxo-1-(((S)-3-oxo-1-((S)-2-oxopyrrolidin-3-yl)-4-(trifluoromethoxy)butan-2-yl)amino)propan-2-yl)-N2-(1-methylcyclo-propyl)oxalamide]",< 0.05
5,"O=C(NC1CC1)C(=O)N[C@@H](CC1CC1)C(=O)N[C@@H](C[C@@H]1CCNC1=O)C(=O)COC(F)(F)F [Compound 586, N1-cyclopropyl-N2-((S)-3-cyclopropyl-1-oxo-1-(((S)-3-oxo-1-((S)-2-oxopyrrolidin-3-yl)-4-(trifluoromethoxy)butan-2-yl)amino)propan-2-yl)oxalamide]",< 0.05
6,"O=C(NC1CC(F)(F)C1)C(=O)N1CC2(CC2)C[C@H]1C(=O)N[C@@H](C[C@@H]1CCNC1=O)C(=O)COC(F)(F)F [Compound 588, (S)-5-(2-((3,3-difluorocyclobutyl)-amino)-2-oxoacetyl)-N-((S)-3-oxo-1-((S)-2-oxopyrrolidin-3-yl)-4-(trifluoromethoxy)butan-2-yl)-5-azaspiro[2.4]-heptane-6-carboxamide]",0.2 to 0.5
7,"O=C(Nc1ccccc1F)C(=O)N[C@@H](Cc1ccc(F)c(F)c1)C(=O)N[C@@H](C[C@@H]1CCNC1=O)C(=O)COC(F)(F)F [Compound 589, N1-((S)-3-(3,4-difluorophenyl)-1-oxo-1-(((S)-3-oxo-1-((S)-2-oxopyrrolidin-3-yl)-4-(trifluoromethoxy)butan-2-yl)amino)propan-2-yl)-N2-(2-fluorophenyl)oxalamide]",0.05 to 0.2
8,"CC(C)(NC(=O)C(=O)N1CC2(CC2)C[C@H]1C(=O)N[C@@H](C[C@@H]1CCNC1=O)C(=O)COC(F)(F)F)C(F)(F)F [Compound 590, (S)-N-((S)-3-oxo-1-((S)-2-oxopyrrolidin-3-yl)-4-(trifluoromethoxy)butan-2-yl)-5-(2-oxo-2-((1,1,1-trifluoro-2-methylpropan-2-yl)amino)acetyl)-5-azaspiro[2.4]heptane-6-carboxamide]",0.05 to 0.2
9,"O=C(Nc1ccc(Cl)cc1F)C(=O)N1CC2(CC2)C[C@H]1C(=O)N[C@@H](C[C@@H]1CCNC1=O)C(=O)COC(F)(F)F [Compound 591, (S)-5-(2-((4-chloro-2-fluorophenyl)amino)-2-oxoacetyl)-N-((S)-3-oxo-1-((S)-2-oxopyrrolidin-3-yl)-4-(trifluoromethoxy)butan-2-yl)-5-azaspiro[2.4]-heptane-6-carboxamide]",< 0.05
10,"CC(C)CC(C(=O)N[C@@H](C[C@@H]1CCNC1=O)C(=O)COC(F)(F)F)n1cc(C(=O)NC(C)(C)C)nn1 (stereo partly drawn) [Compound 592, N-(tert-butyl)-1-(4-methyl-1-oxo-1-(((S)-3-oxo-1-((S)-2-oxopyrrolidin-3-yl)-4-(trifluoromethoxy)butan-2-yl)amino)pentan-2-yl)-1H-1,2,3-triazole-4-carboxamide]",0.05 to 0.2
11,"O=C1NCC[C@H]1C[C@H](NC(=O)[C@@H]1CC2(CC2)CN1C(=O)c1ncccc1F)C(=O)COC(F)(F)F [Compound 593, (S)-5-(3-fluoropicolinoyl)-N-((S)-3-oxo-1-((S)-2-oxopyrrolidin-3-yl)-4-(trifluoromethoxy)butan-2-yl)-5-azaspiro[2.4]-heptane-6-carboxamide]",0.2 to 0.5
12,"CC1(C)[C@@H]2[C@@H](C(=O)N[C@@H](C[C@@H]3CCNC3=O)C(=O)COC(F)(F)F)N(C(=O)c3cc(F)cc(F)c3O)C[C@@H]21 [Compound 594, (1R,2S,5S)-3-(3,5-difluoro-2-hydroxybenzoyl)-6,6-dimethyl-N-((S)-3-oxo-1-((S)-2-oxopyrrolidin-3-yl)-4-(trifluoromethoxy)butan-2-yl)-3-azabicyclo-[3.1.0]hexane-2-carboxamide]",0.05 to 0.2
13,"O=C1NCC[C@H]1C[C@H](NC(=O)[C@@H]1CC2(CC2)CN1C(=O)[C@H](CO)c1ccccc1)C(=O)COC(F)(F)F [Compound 595, (S)-5-((S)-3-hydroxy-2-phenylpropanoyl)-N-((S)-3-oxo-1-((S)-2-oxopyrrolidin-3-yl)-4-(trifluoromethoxy)butan-2-yl)-5-azaspiro[2.4]-heptane-6-carboxamide]",0.05 to 0.2
14,"CC(C)C[C@H](NC(=O)C(=O)NC12CC(C(F)(F)F)(C1)C2)C(=O)N[C@@H](C[C@@H]1CCNC1=O)C(=O)COC(F)(F)F [Compound 596, N1-((S)-4-methyl-1-oxo-1-(((S)-3-oxo-1-((S)-2-oxopyrrolidin-3-yl)-4-(trifluoromethoxy)butan-2-yl)amino)pentan-2-yl)-N2-(3-(trifluoromethyl)bi-cyclo[1.1.1]pentan-1-yl)oxalamide]",< 0.05
15,"O=C(Nc1cccc(F)c1F)C(=O)N1CC2(CC2)C[C@H]1C(=O)N[C@@H](C[C@@H]1CCNC1=O)C(=O)COC(F)(F)F [Compound 598, (S)-5-(2-((2,3-difluorophenyl)amino)-2-oxoacetyl)-N-((S)-3-oxo-1-((S)-2-oxopyrrolidin-3-yl)-4-(trifluoromethoxy)butan-2-yl)-5-azaspiro[2.4]heptane-6-carboxamide]",< 0.05
16,"COc1cccc(NC(=O)C(=O)N2CC3(CC3)C[C@H]2C(=O)N[C@@H](C[C@@H]2CCNC2=O)C(=O)COC(F)(F)F)c1F [Compound 599, (S)-5-(2-((2-fluoro-3-methoxyphenyl)amino)-2-oxoacetyl)-N-((S)-3-oxo-1-((S)-2-oxopyrrolidin-3-yl)-4-(trifluoromethoxy)butan-2-yl)-5-azaspiro[2.4]heptane-6-carboxamide]",< 0.05
17,"O=C(Nc1cccc(OC(F)(F)F)c1F)C(=O)N1CC2(CC2)C[C@H]1C(=O)N[C@@H](C[C@@H]1CCNC1=O)C(=O)COC(F)(F)F [Compound 600, (S)-5-(2-((2-fluoro-3-(trifluoromethoxy)-phenyl)amino)-2-oxoacetyl)-N-((S)-3-oxo-1-((S)-2-oxopyrrolidin-3-yl)-4-(trifluoromethoxy)-butan-2-yl)-5-azaspiro[2.4]heptane-6-carboxamide]",< 0.05
18,"CC(C)(C)NC(=O)C(=O)N1C[C@@H]2C(F)CC[C@@H]2[C@H]1C(=O)N[C@@H](C[C@@H]1CCNC1=O)C(=O)COC(F)(F)F (stereo partly drawn) [Compound 601, (1S,3aR,6aS)-2-(2-(tert-butylamino)-2-oxoacetyl)-4-fluoro-N-((S)-3-oxo-1-((S)-2-oxopyrrolidin-3-yl)-4-(trifluoromethoxy)butan-2-yl)octahydrocyclo-penta[c]pyrrole-1-carboxamide]",0.05 to 0.2
19,"O=C(Nc1cc(F)ccc1F)C(=O)N1CC2(CC2)C[C@H]1C(=O)N[C@@H](C[C@@H]1CCNC1=O)C(=O)COC(F)(F)F [Compound 602, (S)-5-(2-((2,5-difluorophenyl)amino)-2-oxoacetyl)-N-((S)-3-oxo-1-((S)-2-oxopyrrolidin-3-yl)-4-(trifluoromethoxy)butan-2-yl)-5-azaspiro[2.4]heptane-6-carboxamide]",< 0.05
20,"O=C(Nc1c(F)cccc1Cl)C(=O)N1CC2(CC2)C[C@H]1C(=O)N[C@@H](C[C@@H]1CCNC1=O)C(=O)COC(F)(F)F [Compound 603, (S)-5-(2-((2-chloro-6-fluorophenyl)amino)-2-oxoacetyl)-N-((S)-3-oxo-1-((S)-2-oxo-pyrrolidin-3-yl)-4-(trifluoromethoxy)-butan-2-yl)-5-azaspiro[2.4]heptane-6-carboxamide]",0.05 to 0.2
21,"O=C1NCC[C@H]1C[C@@H](NC(=O)[C@@H]1[C@H]2CCC[C@H]2CN1C(=O)c1cc2cc(F)ccc2[nH]1)C(=O)COC(F)(F)F [Compound 604, (1S,3aR,6aS)-2-(5-fluoro-1H-indole-2-carbonyl)-N-((R)-3-oxo-1-((S)-2-oxopyrrolidin-3-yl)-4-(trifluoromethoxy)butan-2-yl)octahydrocyclopenta[c]pyrrole-1-carboxamide]",< 0.05
22,"COc1cccc2[nH]c(C(=O)N3CC4(CC4)C[C@H]3C(=O)N[C@@H](C[C@@H]3CCNC3=O)C(=O)COC(F)(F)F)cc12 [Compound 605, (S)-5-(4-methoxy-1H-indole-2-carbonyl)-N-((S)-3-oxo-1-((S)-2-oxopyrrolidin-3-yl)-4-(trifluorometh-oxy)butan-2-yl)-5-azaspiro[2.4]heptane-6-carboxamide]",< 0.05
23,"O=C(Nc1ccccc1Cl)C(=O)N1CC2(CC2)C[C@H]1C(=O)N[C@@H](C[C@@H]1CCNC1=O)C(=O)COC(F)(F)F [Compound 606, (S)-5-(2-((2-chlorophenyl)amino)-2-oxoacetyl)-N-((S)-3-oxo-1-((S)-2-oxopyrrolidin-3-yl)-4-(trifluoromethoxy)butan-2-yl)-5-azaspiro[2.4]heptane-6-carboxamide]",< 0.05
24,"O=C(Nc1cccc(Cl)c1)C(=O)N1CC2(CC2)C[C@H]1C(=O)N[C@@H](C[C@@H]1CCNC1=O)C(=O)COC(F)(F)F [Compound 607, (S)-5-(2-((3-chlorophenyl)amino)-2-oxoacetyl)-N-((S)-3-oxo-1-((S)-2-oxopyrrolidin-3-yl)-4-(trifluoromethoxy)butan-2-yl)-5-azaspiro[2.4]heptane-6-carboxamide]",< 0.05
